Measured values taken from ChEMBL document CHEMBL1126797 (J Med Chem, 1993).

Legend:
L1210 [1] = experiment: Log of initial tumor cell population minus log of tumor cell population at end of treatment in L1210 lymphoid leukemic mice; type: functional, Mus musculus
DNA topoisomerase 1 [2] = molecular target: T1, DNA topoisomerase 1 (Homo sapiens, UniProt P11387); experiment: Inhibition of Topoisomerase I by cleavage complex formation in human HL-60 cells; type: cell-based
T1 sequence (P11387 whole entry): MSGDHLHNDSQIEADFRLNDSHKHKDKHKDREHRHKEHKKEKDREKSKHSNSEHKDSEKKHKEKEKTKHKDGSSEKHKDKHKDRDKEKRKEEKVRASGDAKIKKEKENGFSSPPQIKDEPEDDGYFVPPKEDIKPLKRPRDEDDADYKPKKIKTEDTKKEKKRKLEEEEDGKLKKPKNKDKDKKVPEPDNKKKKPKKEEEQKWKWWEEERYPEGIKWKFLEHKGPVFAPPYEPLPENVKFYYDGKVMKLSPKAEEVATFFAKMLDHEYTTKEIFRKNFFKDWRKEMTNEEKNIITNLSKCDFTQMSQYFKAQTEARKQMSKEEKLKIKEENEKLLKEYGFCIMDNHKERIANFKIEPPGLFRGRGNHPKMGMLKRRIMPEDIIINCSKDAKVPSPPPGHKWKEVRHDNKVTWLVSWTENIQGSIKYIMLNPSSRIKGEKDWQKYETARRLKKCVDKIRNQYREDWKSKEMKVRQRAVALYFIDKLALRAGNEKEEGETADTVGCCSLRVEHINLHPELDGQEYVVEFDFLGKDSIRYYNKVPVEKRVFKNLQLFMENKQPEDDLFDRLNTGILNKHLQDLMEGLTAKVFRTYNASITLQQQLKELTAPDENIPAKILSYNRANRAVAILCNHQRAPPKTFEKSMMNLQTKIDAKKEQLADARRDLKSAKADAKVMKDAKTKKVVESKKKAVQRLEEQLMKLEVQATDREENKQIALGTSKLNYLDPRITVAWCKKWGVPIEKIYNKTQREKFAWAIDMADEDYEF

Mus musculus [3] = experiment: Highest active dose in L1210 lymphoid leukemic mice at dose of 2-4.5 mg/kg; type: functional
Mus musculus [4] = organism: Mus musculus; experiment: Percent median survival time of treated leukemic mice compared to control; type: functional
Mus musculus [5] = organism: Mus musculus; experiment: Number of L1210 lymphoid leukemic mice cured out of […]; type: functional
Mus musculus [6] = experiment: Relative survival in RAW117-H10 cells implanted mice in comparison to control at dose of 3.5 mg/kg; type: functional
Mus musculus [7] = experiment: Relative survival in L1210 lymphoid leukemic mice after subcutaneous administration on days 1,4,6,8 at dose of 3.5 mg/kg; type: functional
HT-29 [8] = experiment: Tumor volume in HT-29 cells after subcutaneous administration on days 16,20,23,27,30,34,37,41,44,48 at dose of 3.5 mg/kg; type: functional, Homo sapiens
[9] = Number of metastases in K1735-M2 murine melanoma cells after subcutaneous administration on days1,4,6,8 at dose of 3.5 mg/kg; type: functional, Mus musculus
Mus musculus [10] = experiment: Highest active dose in L1210 lymphoid leukemic mice at dose range of 0.3-1.5 mg/kg; type: functional
Mus musculus [11] = experiment: Relative survival in L1210 lymphoid leukemic mice after subcutaneous administration on days1,4,6,8 at dose of 1.5 mg/kg; type: functional
[12] = Number of metastases in K1735-M2 murine melanoma cells after subcutaneous administration on days1,4,6,8 at dose of 1.5 mg/kg; type: functional, Mus musculus
Mus musculus [13] = experiment: Relative survival in RAW117-H10 cells implanted mice in comparison to control at dose of 1.5 mg/kg; type: functional
HT-29 [14] = experiment: Tumor volume in HT-29 cells after subcutaneous administration on days 16,20,23,27,30,34,37,41,44,48 at dose of 1.5 mg/kg; type: functional, Homo sapiens
Mus musculus [15] = experiment: Highest active dose in L1210 lymphoid leukemic mice at dose range of 2.37-12.00 mg/kg; type: functional
Mus musculus [16] = experiment: Highest active dose in L1210 lymphoid leukemic mice at range of 1.25-20 mg/kg; type: functional
Mus musculus [17] = organism: Mus musculus; experiment: Toxic dose in L1210 lymphoid leukemic mice; type: toxicity, organism-based; settings: in vivo
L1210 [18] = experiment: Log of initial tumor cell population minus log of tumor cell population at end of treatment after i.v. drug dosing on hours 1 and 5; type: functional, Mus musculus
Mus musculus [19] = experiment: Highest active dose in L1210 lymphoid leukemic mice at dose range of 2.5-20 mg/kg after i.v. drug dosing on hours 1 and 5; type: functional
Mus musculus [20] = experiment: Median survival time of treated/control L1210 leukemic mice after i.v. drug dosing on hours 1 and 5; type: functional
Mus musculus [21] = experiment: Toxic dose in L1210 lymphoid leukemic mice at dose of 20 mg/kg after i.v. drug dosing on hours 1 and 5; NT means not toxic; type: toxicity, organism-based; set-up: dose 20 mg/kg, route intravenous; settings: in vivo, iv
Mus musculus [22] = experiment: Number of L1210 mice cured after i.v. drug dosing on hours 1 and 5; type: functional
[23] = Number of metastases in K1735-M2 murine melanoma cells after subcutaneous administration on days1,4,6,8 at dose of 6 mg/kg; type: functional, Mus musculus
Mus musculus [24] = experiment: Relative survival in RAW117-H10 cells implanted mice in comparison to control at dose of 6 mg/kg; type: functional
Mus musculus [25] = experiment: Relative survival in L1210 lymphoid leukemic mice after subcutaneous administration on days1,4,6,8 at dose of 6 mg/kg; type: functional
Mus musculus [26] = experiment: Highest active dose in L1210 lymphoid leukemic mice at range of 3.63-15.5 mg/kg; type: functional
Mus musculus [27] = experiment: Highest active dose in L1210 lymphoid leukemic mice at range of 1.35-3.74 mg/kg; type: functional
Mus musculus [28] = experiment: Highest active dose in L1210 lymphoid leukemic mice at range of 10-80 mg/kg; type: functional
Mus musculus [29] = experiment: Relative survival in RAW117-H10 cells implanted mice in comparison to control at dose of 3 mg/kg; type: functional
Mus musculus [30] = experiment: Highest active dose in L1210 lymphoid leukemic mice at dose range of 2-4 mg/kg; type: functional
Mus musculus [31] = experiment: Relative survival in L1210 lymphoid leukemic mice after subcutaneous administration on days 1,4,6,8 at dose of 3 mg/kg; type: functional
[32] = Number of metastases in K1735-M2 murine melanoma cells after subcutaneous administration on days1,4,6,8 at dose of 3 mg/kg; type: functional, Mus musculus
Mus musculus [33] = organism: Mus musculus; experiment: Toxic dose to L1210 lymphoid leukemic mice; type: toxicity, organism-based; settings: in vivo
Mus musculus [34] = experiment: Highest active dose in L1210 lymphoid leukemic mice at range of 5-20 mg/kg; type: functional
Mus musculus [35] = experiment: Highest active dose in L1210 lymphoid leukemic mice after i.v. drug dosing on hours 1 and 5 at dose range of 1.25-20 mg/kg; type: functional
DNA topoisomerase 1 [36] = molecular target: T1, DNA topoisomerase 1; experiment: Inhibition of Topoisomerase I by cleavage complex formation in intact human HL-60 cells; type: cell-based
L1210 [37] = experiment: Toxic dose in L1210 murine lymphoid leukemia after i.v. drug dosing on hours 1 and 5; NT means not toxic at 20 mg/kg; type: toxicity, organism-based; set-up: dose 20 mg/kg, route intravenous; settings: mouse, in vivo, iv
L1210 [38] = experiment: Toxic dose in L1210 murine lymphoid leukemia at dose of 20 mg/kg after i.v. drug dosing on hours 1 and 5; NT means not toxic; type: toxicity, organism-based; set-up: dose 20 mg/kg, route intravenous; settings: mouse, in vivo, iv
Mus musculus [39] = experiment: Median survival time of treated/control animals x 100 after i.v. drug dosing on hours 1 and 5; type: functional
Mus musculus [40] = experiment: Highest active dose in L1210 lymphoid leukemic mice at dose range of 10-40 mg/kg; type: functional
Mus musculus [41] = experiment: Highest active dose in L1210 lymphoid leukemic mice at dose of 5.3-12 mg/kg; type: functional

Row | Compound | KE (L1210 [1]) | IC50 (DNA topoisomerase 1 [2]) | T/C (Mus musculus [4]) | Cures (Mus musculus [5]) | Toxic dose (Mus musculus [17]) | further results
1 | CC[C@@]1(O)C(=O)OCc2c1cc1n(c2=O)Cc2cc3cc(N)ccc3nc2-1 | >5.99 | 140 nM | 565% | 6 | – | Highest active dose (Mus musculus [3]): 4.5 mg/kg
2 | CC[C@@](O)(C(=O)[O-])c1cc2n(c(=O)c1CO)Cc1cc3c(N)c4c(cc3nc1-2)OCO4.[Na+] | – | 4300 nM | – | – | – | T/C (Mus musculus [6]): 1.75; T/C (Mus musculus [7]): 2.56; Control (HT-29 [8]): 38%; Control [9]: 51%
3 | CC[C@@]1(O)C(=O)OCc2c1cc1n(c2=O)Cc2cc3c(N)c4c(cc3nc2-1)OCO4 | 5.8 | 48 nM | 336% | 4 | – | Highest active dose (Mus musculus [10]): 1.5 mg/kg; T/C (Mus musculus [11]): 1.98; Control [12]: 17%; T/C (Mus musculus [13]): 1.25; Control (HT-29 [14]): 17%
4 | CC[C@@]1(O)C(=O)OCc2c1cc1n(c2=O)Cc2cc3c(Cl)cccc3nc2-1 | 0 | 86 nM | 150% | 0 | – | Highest active dose (Mus musculus [15]): 12 mg/kg
5 | CCC1(O)C(=O)OCc2c1cc1n(c2=O)Cc2cc3c([N+](=O)[O-])cccc3nc2-1 (centres undefined) | 5.97 | – | 348% | 5 | 40 mg/kg | Highest active dose (Mus musculus [16]): 10 mg/kg
6 | CCC(O)(C(=O)[O-])c1cc2n(c(=O)c1CO)Cc1cc3cc([O-])ccc3nc1-2.[Na+].[Na+] (centres undefined) | – | 3200 nM | – | – | – | KE (L1210 [18]): 3.24; Highest active dose (Mus musculus [19]): 20 mg/kg; T/C (Mus musculus [20]): 184%; Toxic dose (Mus musculus [21]): Non-toxic; Cures (Mus musculus [22]): 0
7 | CCC(O)(C(=O)[O-])c1cc2n(c(=O)c1CO)Cc1cc3c(N)c4c(cc3nc1-2)OCO4.[Na+] (racemic) | – | 5500 nM | – | – | – | Control [23]: 98%; T/C (Mus musculus [24]): 1.4; T/C (Mus musculus [25]): 1.78
8 | CCC1(O)C(=O)OCc2c1cc1n(c2=O)Cc2cc3cc([N+](=O)[O-])ccc3nc2-1 (racemic) | 5.97 | – | 233% | 0 | 31 mg/kg | Highest active dose (Mus musculus [26]): 7.25 mg/kg
9 | CCC1(O)C(=O)OCc2c1cc1n(c2=O)Cc2cc3cc(N)ccc3nc2-1 (racemic) | 5.97 | – | 365% | 3 | 6.25 mg/kg | Highest active dose (Mus musculus [27]): 3.75 mg/kg
10 | CCC1(O)C(=O)OCc2c1cc1n(c2=O)Cc2cc3cc(C)ccc3nc2-1 (racemic) | 4.66 | – | 207% | 0 | – | Highest active dose (Mus musculus [28]): 10 mg/kg
11 | CCC1(O)C(=O)OCc2c1cc1n(c2=O)Cc2cc3cc4c(cc3nc2-1)OCO4 (racemic) | 5.97 | – | 325% | 2 | 8 mg/kg | T/C (Mus musculus [29]): 1.04; Highest active dose (Mus musculus [30]): 2 mg/kg; T/C (Mus musculus [31]): 1.22; Control [32]: 65%
12 | CCC1(O)C(=O)OCc2c1cc1n(c2=O)Cc2cc3cc(Cl)ccc3nc2-1 (racemic) | 5.97 | – | 280% | 2 | – | Toxic dose (Mus musculus [33]): 40 mg/kg; Highest active dose (Mus musculus [34]): 10 mg/kg
13 | CCC1(OC(=O)CN)C(=O)OCc2c1cc1n(c2=O)Cc2cc3cc4c(cc3nc2-1)OCO4.Cl (racemic) | – | 430 nM | 236% | – | – | KE (L1210 [18]): 5.97; Highest active dose (Mus musculus [35]): 10 mg/kg; IC50 (DNA topoisomerase 1 [36]): 2500 nM; Cures (Mus musculus [22]): 3; Toxic dose (L1210 [37]): Not toxic
14 | CCC1(O)C(=O)OCc2c1cc1n(c2=O)Cc2cc3c(NC(=O)CN)cccc3nc2-1.Cl (racemic) | – | 570 nM | – | – | – | KE (L1210 [18]): 2.95; Highest active dose (Mus musculus [35]): 20 mg/kg; Toxic dose (L1210 [38]): Non-toxic; IC50 (DNA topoisomerase 1 [36]): > 30000 nM; Cures (Mus musculus [22]): 0; T/C (Mus musculus [39]): 180%
15 | CCC1(O)C(=O)OCc2c1cc1n(c2=O)Cc2cc3c(O)cccc3nc2-1 (racemic) | – | 900 nM | 134% | 0 | – | Highest active dose (Mus musculus [40]): 20 mg/kg
16 | CC[C@@]1(O)C(=O)OCc2c1cc1n(c2=O)Cc2cc3ccccc3nc2-1 [CAMPTOTHECIN] | 4.8 | – | 250% | 1 | 10 mg/kg | Highest active dose (Mus musculus [41]): 12 mg/kg
